Consider 33 compounds from patent US12509449B2, “Anthelmintic compounds comprising a quinoline structure” (Intervet Inc., priority 2019, dated 2025).

The test system of one assay is Ascaridia galli L3. Put plainly: In vitro assay Ascaridia galli larval stage 3, minimum effective concentration. To be noted: 20 larvae per well, microscopic examination, read-out: MEC (minimum effective concentration) against Ascaridia galli L3. Format: cell-based. An excerpt:
(§1) […] galli (intestinal roundworm of chicken), larval stage 3 (“L3”); and Oesophagostumum dentatum (nodular worm of swine), larval stages 3 and 4 (respectively “L3” and “L4”) where suspended in a nutrient medium and distributed to 96 well plates with 20 larvae per well. The wells were spiked DMSO solutions of the compounds with declining concentration.

Assay [1] deals with Oesophagostumum dentatum L3. Description: In vitro assay Oesophagostumum dentatum larval stage 3, minimum effective concentration. It is filed as cell-based. The settings on record: 20 larvae per well, microscopic examination; read-out: MEC (minimum effective concentration) against Oesophagostumum dentatum L3.
From the text: as §1

The target of assay [2] is T1, human Maxi K channel (BK channel), KCNMA1 (KCa1.1) and beta1 (KCNMB1) subunits (Homo sapiens, UniProt Q12791).
T1 construct: expressed in transfected cells; host or cells: CHO K1
T1 sequence (Q12791 1-1178 isoform Q12791-5): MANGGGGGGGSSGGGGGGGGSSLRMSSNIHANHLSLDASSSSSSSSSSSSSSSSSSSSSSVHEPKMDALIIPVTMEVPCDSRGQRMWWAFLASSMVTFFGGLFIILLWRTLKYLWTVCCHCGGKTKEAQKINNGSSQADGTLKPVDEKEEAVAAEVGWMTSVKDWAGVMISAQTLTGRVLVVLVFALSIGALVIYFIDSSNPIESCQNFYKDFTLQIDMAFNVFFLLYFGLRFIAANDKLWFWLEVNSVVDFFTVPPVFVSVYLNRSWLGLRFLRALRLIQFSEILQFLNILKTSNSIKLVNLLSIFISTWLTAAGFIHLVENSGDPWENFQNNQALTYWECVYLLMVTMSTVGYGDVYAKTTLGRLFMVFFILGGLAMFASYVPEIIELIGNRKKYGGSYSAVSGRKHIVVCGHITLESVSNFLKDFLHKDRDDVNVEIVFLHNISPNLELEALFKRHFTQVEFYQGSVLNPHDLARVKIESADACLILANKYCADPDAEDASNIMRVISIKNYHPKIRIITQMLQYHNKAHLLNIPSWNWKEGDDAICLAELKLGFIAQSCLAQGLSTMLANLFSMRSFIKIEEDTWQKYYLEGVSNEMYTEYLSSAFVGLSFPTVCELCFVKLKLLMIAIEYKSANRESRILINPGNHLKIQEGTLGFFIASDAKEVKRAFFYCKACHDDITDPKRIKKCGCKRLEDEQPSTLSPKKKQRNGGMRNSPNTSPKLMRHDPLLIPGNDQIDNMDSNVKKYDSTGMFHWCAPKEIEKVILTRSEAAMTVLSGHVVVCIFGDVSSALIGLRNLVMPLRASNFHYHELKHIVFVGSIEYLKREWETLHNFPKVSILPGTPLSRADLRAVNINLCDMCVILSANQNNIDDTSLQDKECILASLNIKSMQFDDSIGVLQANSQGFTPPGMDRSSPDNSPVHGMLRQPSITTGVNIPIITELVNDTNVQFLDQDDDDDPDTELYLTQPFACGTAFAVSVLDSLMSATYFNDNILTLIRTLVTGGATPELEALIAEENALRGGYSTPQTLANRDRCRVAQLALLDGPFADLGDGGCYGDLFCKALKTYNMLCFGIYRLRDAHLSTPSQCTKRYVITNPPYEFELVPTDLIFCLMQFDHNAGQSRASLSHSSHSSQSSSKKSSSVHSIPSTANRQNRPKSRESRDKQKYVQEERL
T1 sequence (Q16558 whole entry partner): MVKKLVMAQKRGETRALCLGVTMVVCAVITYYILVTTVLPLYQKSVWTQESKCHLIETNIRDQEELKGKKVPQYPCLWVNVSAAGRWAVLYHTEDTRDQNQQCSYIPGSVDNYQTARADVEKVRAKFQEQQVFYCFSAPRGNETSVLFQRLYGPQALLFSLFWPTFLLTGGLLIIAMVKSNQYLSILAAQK
Put plainly: Agonistic activity at the human Maxi K channel (BK channel), membrane potential (FLIPR) in transfected CHO K1 cells. It is filed as cell-based. To be noted: membrane potential dye, 70 mM KCl. The source says: A CHO K1 cell line was stably transfected with the KCNMA1 (KCa1.1, U11058) and beta1 (KCNMB1) subunits of the human Maxi K channel (Ponte et al, Molecular Pharmacology 2012, 81(4), 567-577).
The complete measurement takes 150 s.

The target of assay [3] is Caenorhabditis elegans slo-1a (Caenorhabditis elegans, UniProt Q95V25). Put plainly: Agonistic activity at C. elegans Slo-1a, membrane potential (FLIPR) in transfected CHO K1 cells. The settings on record: EC50 agonistic activity at C. elegans Slo-1a, membrane potential dye, 70 mM KCl.
Chain of Caenorhabditis elegans slo-1a (Q95V25 whole entry): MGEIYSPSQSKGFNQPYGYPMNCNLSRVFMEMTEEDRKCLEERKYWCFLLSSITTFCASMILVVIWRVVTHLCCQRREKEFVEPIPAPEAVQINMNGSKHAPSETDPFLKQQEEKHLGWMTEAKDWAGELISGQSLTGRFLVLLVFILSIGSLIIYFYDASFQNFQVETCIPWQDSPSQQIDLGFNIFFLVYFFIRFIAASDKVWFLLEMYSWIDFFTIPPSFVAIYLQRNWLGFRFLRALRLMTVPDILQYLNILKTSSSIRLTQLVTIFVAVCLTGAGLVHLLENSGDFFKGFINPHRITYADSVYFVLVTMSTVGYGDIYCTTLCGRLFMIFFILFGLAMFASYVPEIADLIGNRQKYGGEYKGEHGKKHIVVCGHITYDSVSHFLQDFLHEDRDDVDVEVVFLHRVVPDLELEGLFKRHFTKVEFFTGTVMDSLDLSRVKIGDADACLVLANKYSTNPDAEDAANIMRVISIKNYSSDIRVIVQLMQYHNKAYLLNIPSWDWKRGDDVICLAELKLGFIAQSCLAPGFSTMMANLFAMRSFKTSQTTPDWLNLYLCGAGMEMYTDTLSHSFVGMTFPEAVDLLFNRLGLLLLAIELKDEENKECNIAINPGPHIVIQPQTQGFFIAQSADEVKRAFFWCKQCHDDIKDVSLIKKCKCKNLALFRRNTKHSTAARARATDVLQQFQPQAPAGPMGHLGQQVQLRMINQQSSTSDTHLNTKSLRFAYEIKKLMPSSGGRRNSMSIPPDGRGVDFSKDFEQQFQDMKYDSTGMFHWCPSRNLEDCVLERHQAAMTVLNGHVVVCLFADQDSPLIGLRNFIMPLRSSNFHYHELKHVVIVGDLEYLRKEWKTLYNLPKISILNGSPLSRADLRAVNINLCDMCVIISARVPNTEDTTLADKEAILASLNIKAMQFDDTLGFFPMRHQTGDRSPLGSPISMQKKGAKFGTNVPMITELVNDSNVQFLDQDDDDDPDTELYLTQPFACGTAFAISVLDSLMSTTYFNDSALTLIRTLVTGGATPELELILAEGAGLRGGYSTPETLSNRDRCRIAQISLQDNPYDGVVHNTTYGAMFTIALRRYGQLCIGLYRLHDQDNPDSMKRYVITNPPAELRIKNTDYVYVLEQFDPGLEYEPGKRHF
Experimental: A CHO K1 cell line stably transfected with the Caenorhabditis elegans slo-1a (accession no Y51A2D.19a) was established. Cells were seeded in microtiter plates (black 384-well MTP, clear bottom) in a concentration of 10,000 cells/well in 25 μl medium and cultured for 20 to 24 hours at 37° C. and 5% CO2. The cell medium was removed, and the cells washed with Tyrode's solution. 1 of FMP-dye Blue-Tyrode's was added to each well and incubated at room temperature for 30 min.
For the membrane potential measurements, the prepared cell plate and substance plate were placed in the FLIPR Tetra (Molecular Devices). The baseline measurement of the fluorescence was stared for 20 sec (Exc. 510-545 nm, Emm. 565-625 nm). The cells were depolarized by addition of 25p of the diluted test compounds (final assay concentration of the KCl-Tyrode: 70 mM KCl, 2 mM CaCl2), 1 mM MgCl2, 0.8 mM NaH2PO4, 5 mM Glucose, 28 mM Hepes, pH 7.4, including the voltage sensitive dye). The complete measurement takes 150 s.
EC50 values were determined in triplicate utilizing compound dilution series. The data were determined at least in two independent tests. The data were proceeded by using the ActivityBase XE Runner software (IDBS) for curve fitting and calculation of the half-maximal effective concentration.
Assay [4] deals with Oesophagostumum dentatum L4. Put plainly: In vitro assay Oesophagostumum dentatum larval stage 4, minimum effective concentration. Format: cell-based. To be noted: 20 larvae per well, microscopic examination; read-out: MEC (minimum effective concentration) against Oesophagostumum dentatum L4.
From the text: as §1

Another assay concerns Haemonchus contortus. Put plainly: In vitro assay Haemonchus contortus exsheathed L3 larvae motility. It is filed as cell-based. The settings on record: 168 h, incubation 7 days, automated microscopy, read-out: ED50 against Haemonchus contortus (motility reduced by 50%). On the procedure:
Solutions of compounds with declining concentrations in DMSO were prepared, diluted with nutrient medium and distributed to 96 well microtiterplates. […]3 larvae of Haemonchus contortus were incubated for 20 min at 37° C. in a water bath, separated by centrifugation and added to the wells with 300 Larvae/well. After incubation for 7 days motility was assessed by automated microscopy. Ivermectin was used as positive control, DMSO as negative control and ED50 values were calculated which represent the concentration for an individual compound that reduces motility by 50% with respect to the […].

For assay [5], the system named is Acanthocheilonema viteae L1. Put plainly: In vitro assay Acanthocheilonema viteae L1 (microfilaria) motility. It is filed as cell-based. The settings on record: 72 h, incubation 3 days, read-out: EC50 Acanthocheilonema viteae L1, reduction in motility. The protocol:
Approximately 500 A. viteae microfilaria were added to a microtiter plate containing a nutrient medium and the test compound in DMSO at varying concentrations. After incubation for 3 days, activity was evaluated as reduction in motility as compared to DMSO as negative control. Compounds were tested in duplicates. Based on the concentration response curves EC50 values were calculated.

On to `C=C(C)c1c(NC(=O)C2CCc3ccccc32)cnc2c(-c3cccc(Cl)c3Cl)cccc12` (centres unmarked) [Compound 201], for which the minimal effective concentration (with Ascaridia galli L3; in assay [1]) was not above 50 µM throughout. The EC50 in assay [2] is more than 30 µM; in assay [3] it was less than 1 µM.
Regarding `CN(CCO)c1c(NC(=O)C2CCOc3ccccc32)cnc2c(-c3cccc(Cl)c3Cl)cccc12` (centres unmarked) [Compound 92], the minimal effective concentration in assay [4] was not above 50 µM. For the same compound, the EC50 was more than 30 µM in assay [2] and less than 10 µM in assay [3].
With `CCNc1c(NC(=O)C2CCOc3ccccc32)cnc2c(-c3cccc(Cl)c3Cl)cccc12` (centres unmarked) [Compound 86], the minimal effective concentration with Ascaridia galli L3 was not above 50 µM. The EC50 in the assay on Haemonchus contortus is less than 50 µM; in assay [2], more than 30 µM.
Take `CN(C)c1c(NC(=O)c2cccc3ccccc23)cnc2c(-c3cc(Cl)cc(Cl)c3)c(F)ccc12` [Compound 145]: the figures for the EC50 (with Haemonchus contortus; in assay [2]; in assay [3]) were less than 50 µM, more than 30 µM and less than 1 µM, respectively.
With `C=C(C)c1c(NC(=O)C2CCCc3ccccc32)cnc2c(-c3cccc(Cl)c3Cl)cccc12` (centres unmarked) [Compound 202], the minimal effective concentration in assay [1] was not above 50 µM. Further, the EC50 in assay [2] is more than 30 µM; in assay [3], less than 1 µM.
As for `CC(C)Oc1c(NC(=O)C2CCCc3ccccc32)cnc2c(-c3cccc(Cl)c3Cl)c(F)ccc12` (centres unmarked) [Compound 122], the minimal effective concentration (in the assay on Ascaridia galli L3; in assay [1]) was not above 50 µM each time. In assay [2], this compound came in with an EC50 of more than 30 µM.
For `O=C(Nc1cnc2c(-c3cccc(Cl)c3Cl)cccc2c1N1CCC(O)C1)C1CCOc2ccccc21` (centres unmarked) [Compound 37], the minimal effective concentration (with Ascaridia galli L3; in assay [4]) was not above 50 µM each time. Moreover, the EC50 was 10 to 30 µM in assay [2] and less than 1 µM in assay [3].
For the compound `O=C(Nc1cnc2c(-c3cccc(Cl)c3Cl)cccc2c1N1CCC(O)C1)C1CCc2ccccc21` (centres unmarked) [Compound 45], the minimal effective concentration (in the assay on Ascaridia galli L3; in assay [4]) was not above 50 µM in each case. Further, the EC50 was 10 to 30 µM in assay [2] and less than 1 µM in assay [3].
`O=C(Nc1cnc2c(-c3cc(Cl)cc(Cl)c3)c(F)ccc2c1N1CCOCC1)C1CCCc2ccccc21` (centres unmarked) [Compound 116]: the minimal effective concentration with Ascaridia galli L3 was not above 50 µM. Further, the EC50 with Haemonchus contortus was less than 50 µM; in assay [2], more than 30 µM; in assay [3], less than 1 µM.
`CN(C)c1c(NC(=O)C2CCOc3ccccc32)cnc2c(-c3cccc(Cl)c3F)cccc12` (centres unmarked) [Compound 42]: the EC50 with Haemonchus contortus is less than 50 µM; in assay [2], more than 30 µM; in assay [3], less than 1 µM.
Regarding `CN(C)c1c(NC(=O)Cc2ccc(Cl)cc2)cnc2c(-c3cccc(Cl)c3Cl)cccc12` [Compound 25], the minimal effective concentration in assay [1] is not above 50 µM. For the same compound, the results for the EC50 in assay [2] and in assay [3] were more than 30 µM and less than 10 µM, respectively.
`CN(C(=O)C1CCOc2ccccc21)c1cnc2c(-c3cccc(Cl)c3Cl)cccc2c1N1CCOCC1` (centres unmarked) [Compound 158]: the minimal effective concentration in assay [1] and in assay [4] was not above 50 µM in each case. In assay [2], this compound yielded an EC50 of more than 30 µM.
Consider `CC(C)Oc1c(NC(=O)C2CCOc3ccccc32)cnc2c(-c3cccc(Cl)c3Cl)cccc12` (centres unmarked) [Compound 32], for which the minimal effective concentration (in the assay with Ascaridia galli L3; in assay [1]) was not above 50 µM each time. The EC50 in assay [2] was more than 30 µM.
As to `Cc1cccc(CC(=O)Nc2cnc3c(-c4cccc(Cl)c4Cl)cccc3c2N(C)C)c1` [Compound 35], the minimal effective concentration in assay [1] is not above 50 µM. For the same compound, the EC50 is more than 30 µM in assay [2] and less than 10 µM in assay [3].
In the case of `CC(C(=O)Nc1cnc2c(-c3cccc(Cl)c3Cl)cccc2c1N(C)C)c1ccccc1` (centres unmarked) [Compound 24], the minimal effective concentration (in the assay on Ascaridia galli L3; in assay [1]) was not above 50 µM each time. Moreover, the EC50 with Haemonchus contortus was less than 50 µM; in assay [2] it was more than 30 µM; in assay [3] it was less than 10 µM.
For the compound `CCOc1c(NC(=O)C2CCc3ccccc32)cnc2c(-c3cc(Cl)cc(Cl)c3)cccc12` (centres unmarked) [Compound 79], the minimal effective concentration (in the assay on Ascaridia galli L3; in assay [1]) was not above 50 µM each time. Further, the EC50 in the assay with Haemonchus contortus is less than 50 µM; in assay [2], more than 30 µM; in assay [3] it was less than 10 µM.
As for `CN(C)c1c(NC(=O)[C@H]2CCCc3ccccc32)cnc2c(-c3cc(Cl)cc(Cl)c3)cccc12` [Compound 156], the EC50 is less than 50 µM with Haemonchus contortus, more than 30 µM in assay [2] and less than 1 µM in assay [3].
As to `CCN(C(=O)C1CCOc2ccccc21)c1cnc2c(-c3cccc(Cl)c3Cl)cccc2c1N1CCOCC1` (centres unmarked) [Compound 159], the minimal effective concentration in the assay on Ascaridia galli L3 is not above 50 µM. The EC50 in assay [5] was less than 10 µM; in assay [2] it was more than 30 µM.
As for `Cc1ccc(CC(=O)Nc2cnc3c(-c4cccc(Cl)c4Cl)cccc3c2N(C)C)cc1` [Compound 26], the minimal effective concentration in assay [1] was not above 50 µM. The EC50 was more than 30 µM in assay [2] and less than 10 µM in assay [3].
Regarding `O=C(Nc1cnc2c(-c3cccc(Cl)c3Cl)cccc2c1NCCO)C1CCOc2ccccc21` (centres unmarked) [Compound 90], the minimal effective concentration (in the assay on Ascaridia galli L3; in assay [1]) was not above 50 µM in each case. The EC50 in assay [2] was more than 30 µM; in assay [3], less than 10 µM.
Regarding `CCc1c(NC(=O)C2CCCc3ccccc32)cnc2c(-c3cc(Cl)cc(Cl)c3)cccc12` (centres unmarked) [Compound 191], the minimal effective concentration in assay [1] was not above 50 µM. Further, the EC50 in assay [2] is more than 30 µM; in assay [3], less than 1 µM.
As for `CCN(C)c1c(NC(=O)C2CCCc3ccccc32)cnc2c(-c3cccc(Cl)c3Cl)cccc12` (centres unmarked) [Compound 98], the EC50 was less than 10 µM in assay [5] and more than 30 µM in assay [2].
With `CCOc1c(NC(=O)C2CCCc3ccccc32)cnc2c(-c3cc(Cl)cc(Cl)c3)cccc12` (centres unmarked) [Compound 75], the minimal effective concentration (in the assay with Ascaridia galli L3; in assay [1]) was not above 50 µM each time. The EC50 in assay [2] was more than 30 µM; in assay [3], less than 1 µM.
Consider `CN(C)c1c(NC(=O)c2cccc3ccccc23)cnc2c(-c3cccc(Cl)c3Cl)cccc12` [Compound 31], for which the EC50 with Haemonchus contortus is less than 50 µM; in assay [2] it was more than 30 µM; in assay [3] it was less than 1 µM.
Turning to `O=C(Nc1cnc2c(-c3cccc(Cl)c3Cl)cccc2c1N1CCCC1)C1CCc2ccccc21` (centres unmarked) [Compound 18], the minimal effective concentration (with Ascaridia galli L3; in assay [4]) was not above 50 µM throughout. In assay [2], this compound showed an EC50 of more than 30 µM.
On to `CC(C)Oc1c(NC(=O)C2CCc3ccccc32)cnc2c(-c3cccc(Cl)c3Cl)c(F)ccc12` (centres unmarked) [Compound 142], for which the minimal effective concentration (with Ascaridia galli L3; in assay [1]) was not above 50 µM each time. The EC50 in assay [2] was more than 30 µM.
As for `CN(C)c1cccc(CC(=O)Nc2cnc3c(-c4cccc(Cl)c4Cl)cccc3c2N(C)C)c1` [Compound 49], the minimal effective concentration in assay [4] was not above 50 µM. The EC50 in assay [2] was more than 30 µM; in assay [3], less than 10 µM.
For the compound `Cc1c(NC(=O)C2CCCc3ccccc32)cnc2c(-c3cc(Cl)cc(Cl)c3)cccc12` (centres unmarked) [Compound 192], the minimal effective concentration in assay [4] was not above 50 µM. Further, the EC50 was more than 30 µM in assay [2] and less than 10 µM in assay [3].
For the compound `CCOc1c(NC(=O)C2CCCc3ccccc32)cnc2c(-c3cc(Cl)cc(Cl)c3)c(F)ccc12` (centres unmarked) [Compound 114], the minimal effective concentration in assay [1] is not above 50 µM. For the same compound, the EC50 in assay [2] was more than 30 µM.
In the case of `O=C(Nc1cnc2c(-c3cccc(Cl)c3Cl)cccc2c1O)C1CCOc2ccccc21` (centres unmarked) [Compound 112], the minimal effective concentration in assay [1] was not above 50 µM. In assay [2], this compound gave an EC50 of more than 30 µM.
For the compound `O=C(Nc1cnc2c(-c3cc(Cl)cc(Cl)c3)cccc2c1N1CCOCC1)C1CCCc2ccccc21` (centres unmarked) [Compound 8], the EC50 in the assay on Haemonchus contortus is less than 50 µM; in assay [2], 10 to 30 µM; in assay [3], less than 1 µM.
Consider `CN(C)c1c(NC(=O)Cc2ccccc2)cnc2c(-c3cccc(Cl)c3Cl)cccc12` [Compound 1], for which the minimal effective concentration (with Ascaridia galli L3; in assay [1]) was not above 50 µM each time. For the same compound, the results for the EC50 in assay [2] and in assay [3] were more than 30 µM and less than 10 µM, respectively.
Regarding `CCOc1c(NC(=O)C2CCc3ccccc32)cnc2c(-c3cccc(Cl)c3Cl)cccc12` (centres unmarked) [Compound 57, N-(8-(2,3-dichlorophenyl)-4-ethoxyquinolin-3-yl)-2,3-dihydro-1H-indene-1-carboxamide], the minimal effective concentration in assay [1] is not above 50 µM. Further, the EC50 in assay [2] was more than 30 µM; in assay [3], less than 1 µM.
